# System: HCT116 cells
# Test: Acridine orange (AO) staining for autophagy
# Format: cell-based, human
# Conditions: HCT116, IC50 dose, 72 h
# Excerpt: Apostat staining confirmed that apoptosis was in correlation with the activation of caspases (Figure 3C). […] The […] production of reactive oxygen species explains the observed effects of the applied treatments, namely inhibition of proliferation and induction of apoptosis (Figure 3E). It is widely accepted that drug-mediated hyperproduction of reactive oxygen species that are not buffered by cellular anti-oxidative protection is responsible for cell death induction. […] The described feature is acquired during disease progression, and it is tightly connected with abnormal blood supply and a hypoxic microenvironment. Therefore, elimination of these molecules results in a rapid decrease in cell viability. […]
# Non-adherent cells were removed two hours after seeding and treatment was applied. Cell viability was determined after 72 h using a crystal violet (CV) assay. […]
# and R-830-Cb (50 μM) for 72 h. […] After 15 min incubation at room temperature (RT) protected from light the cells were resuspended in AnnV-binding buffer and analysed using flow cytom-etry. HCT116 cells were incubated with pan-caspase inhibitor Apostat for 30 min at 37 °C to determine whether detected apoptosis was mediated by caspase activation. […]
substance,measurement,value
"1-Hydroxy-12-(thiophen-2′-carbonyl)-1,12-dicarba-closo-dodecaborane(12) [Compound R-830-Cb]",autophagy (AO staining),intense autophagy
